Patent publication US11116778B2, “Prodrugs of ALOX-15 inhibitors and methods of using the same” (EMPIRICO INC., priority 2019, dated 2021)
In brackets after ≈: the same amount, converted by molar mass. Like-named read-outs stand apart in the source and are kept apart here.

Experiments:
[1] = Han et al FASEB J. 2017; cited from earlier work
[2] = Levels of compound 3 and compound 5 in rabbit nasal lavage and serum after nasal administration of compound 5; type: in vivo
Protocol: Six (6) female NZW rabbits were employed in this study. Rabbits were obtained from Covance (Denver Pa.). Rabbits were between approximately 10 and 12 months of age at the time of study start. At time point 0, all animals received 50 μL of solution containing rabbit IL4 (RND Systems/Biotechne) and human IL13 (PreproTech) at a concentration of 0.25 mg/mL each in 0.5×PBS containing 12.5 mg/mL BSA per nostril. This was administered intranasally via a venous catheter attached to a micropipette. The animal was positioned in a supine manner and the venous catheter inserted into the nostril. The volume was introduced into the nasal cavity and the same procedure was repeated with the other nostril.
At the 2, 4, and 6 hour time points, animals in Group 1 (n=3) received 0.2 mL of vehicle (0.9% saline) per nostril and the animals in Group 2 (n=3) received 0.2 mL of compound 5 (10 mM) in vehicle per nostril. The dosing of vehicle and compound 5 proceed as follows: The animal was positioned in a supine manner in a restraint bag and a mucosal atomization device (MAD) attached to the pre-filled tuberculin syringe was inserted into the nostril and introduced into the nasal cavity. The same procedure was repeated with the other nostril.
At the 8 hour time point, all the nostrils of all animals were lavaged with 1 mL of 0.9% saline per nostril and the resulting fluid collected. Intranasal lavages were performed as follows: The animals were held sternally in a restraint bag with the head over the edge of the table and the rear of the animal elevated higher than the head. A flexible venous catheter was inserted in the nostril until resistance was felt. The 1 mL of saline was introduced through the catheter into the nasal cavity. The nasal lavage returned from the nostril was collected via a funnel into a conical tube and the approximate volume recorded. This procedure was repeated for the other nostril. The lavage was stored at approximately −70° C. until analysis. Following (<10 minutes) the 8 hour time point lavage, blood was collected from all animals, processed to serum, and frozen at approximately −70° C. until analysis.
Nasal lavage and serum samples were analyzed for the levels of compound 3 and compound 5. Frozen tissue samples were weighed (20-120 mg) and placed into 2 mL CK14 homogenizing tubes (Bertin) and 500 μL of methanol containing 1 mM butylated hydroxy toluene (BHT) and 1 mM tris(2-carboxyethyl)phosphine (TCEP) was added. The tubes were placed in a Precellys 24 tissue homogenizer (Bertin) and run at 6000 rpm six times for 20 seconds with a 10 second pause between cycles. The tubes containing the homogenized tissue were then placed in a microfuge and centrifuged for 5′ at 14,000 rpm to pellet any insoluble material. Compound 3 was quantified using LC-MS/MS (QTrap5500, Applied Biosystems). Q1/Q3 Masses: 306.00/135.00 using a deschloro derivative of compound 3 (lacking chlorine at 4 position of pyrazole ring) as an internal standard. The Q1/Q3 Masses are 272.00/101.00 Da for the internal standard. Compound 3 was extracted using liquid/liquid extraction with methanol as a diluent. […] Compound 5 was quantified using LC-MS/MS (QTrap5500, Applied Biosystems). […] Compound 5 was detected in the lavage samples from Group 2 animals (rabbit 1, rabbit 2, rabbit 3) and ranged in average concentration from 0.016 uM-0.35 uM. […]

[3] = Solubility assessment in water; type: physicochemical; conditions: water; 0.4 μg/ml at molecular weight 308; read-out: solubility, concentration
Protocol: Water was added slowly to 4.7 mg of compound 5 until 4.7 ml of water was added at which point the phosphate fully dissolved. The pH of the solution was estimated using litmus paper and estimated to be <3. Without a counterion, the molecular weight of the phosphate is 418 m. Therefore, at 1 mg/ml, the concentration is 2.4 mM.
For comparison, compound 3 is soluble to 0.4 μg/ml (Han et al FASEB J. 2017 31(2):491-504), which at a molecular weight of 308 is 1.3 μM.
Compound 5 was suspended in water (at weight to give a final concentration of 10 mM) and then 2 eq NaHCO3 was added.

concentration at 8 h ([2]; female, NZW, rabbit, nasal lavage, other: intranasal (mucosal atomization device), rabbits dosed with compound 5, 0.2 mL of 10 mM per nostril at 2, 4, 6 hours, lavage at 8 hours, range over 3 rabbits, read-out: average concentration of compound 3 in nasal lavage (FIG. 8)): 890 to 3100 nM
level in serum samples ([2]; rabbits, intranasal compound 5 10 mM, blood after the 8 hour lavage): no quantifiable
solubility [3]: 1.3 µM (≈ 0.401 µg/mL)
Structure (SMILES): O=C(Nc1ccc(F)cc1Cl)c1n[nH]c(Cl)c1Cl [compound 3, 4,5-dichloro-N-(2-chloro-4-fluorophenyl)-1H-pyrazole-3-carboxamide]
solubility [1]: 0.4 µg/mL (≈ 1.3 µM)
